# pIC50, pKi: −log10 of the molar value. Activity calls are given as the source filed them. The rule behind the calls is not given here.
# Experiments:
# [1] = target: Transient receptor potential cation channel subfamily A member 1 (Homo sapiens, UniProt O75762); test: Ephys (human TRPA1)
# [2] = target: T1, 5-hydroxytryptamine receptor 1A (Homo sapiens) (UniProt P08908); conditions: Compound concentration 10.0 uM
# T1 sequence (whole entry): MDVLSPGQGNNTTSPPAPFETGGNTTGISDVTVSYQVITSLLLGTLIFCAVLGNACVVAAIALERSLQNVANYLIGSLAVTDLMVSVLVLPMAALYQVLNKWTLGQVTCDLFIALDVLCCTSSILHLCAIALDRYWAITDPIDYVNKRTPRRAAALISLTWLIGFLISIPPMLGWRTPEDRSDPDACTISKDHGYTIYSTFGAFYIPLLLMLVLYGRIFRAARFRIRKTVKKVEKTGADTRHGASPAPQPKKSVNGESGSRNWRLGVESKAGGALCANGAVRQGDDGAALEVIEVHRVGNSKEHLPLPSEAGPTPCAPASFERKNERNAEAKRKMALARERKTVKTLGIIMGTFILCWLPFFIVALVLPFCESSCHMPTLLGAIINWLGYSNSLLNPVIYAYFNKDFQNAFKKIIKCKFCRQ
# [3] = target: 5-hydroxytryptamine receptor 2A (Homo sapiens, UniProt P28223); test: GPCRScan assay: inhibition of 5-HT2A; set-up: radioligand conc. used [nm] 1.2 – 2.4, parental cells HEKT
# [4] = target: D(1B) dopamine receptor (Homo sapiens) (UniProt P21918); conditions: Compound concentration 10.0 uM
# Sequence of D(1B) dopamine receptor (Homo sapiens) (P21918 whole entry): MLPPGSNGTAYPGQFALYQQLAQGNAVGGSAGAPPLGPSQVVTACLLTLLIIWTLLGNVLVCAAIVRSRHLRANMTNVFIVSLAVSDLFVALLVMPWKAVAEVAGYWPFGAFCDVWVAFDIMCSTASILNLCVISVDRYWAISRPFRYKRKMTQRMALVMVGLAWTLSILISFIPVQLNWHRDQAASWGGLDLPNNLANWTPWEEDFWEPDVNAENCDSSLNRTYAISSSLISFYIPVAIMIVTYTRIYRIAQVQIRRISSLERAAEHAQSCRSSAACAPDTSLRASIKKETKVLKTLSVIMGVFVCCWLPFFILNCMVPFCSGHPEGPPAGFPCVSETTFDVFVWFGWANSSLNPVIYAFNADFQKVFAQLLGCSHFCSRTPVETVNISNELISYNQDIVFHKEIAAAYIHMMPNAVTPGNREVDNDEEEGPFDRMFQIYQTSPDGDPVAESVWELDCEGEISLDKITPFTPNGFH
# [5] = target: Glutamate receptor ionotropic, kainate (Rattus norvegicus) (UniProt P22756+Q01812+P42260+P42264+Q63273); test: Inhibition of Glutamate, Kainate at 10 µM in the Eurofins-Panlabs radioligand binding assay (Eurofins_assay_232700); conditions: Compound concentration 10.0 uM
# [6] = target: Glutamate receptor 2 (Homo sapiens) (UniProt P42262); conditions: Rattus norvegicus; Compound concentration 10.0 uM
# [7] = target: Endothelin receptor type B (Homo sapiens) (UniProt P24530); conditions: Compound concentration 10.0 uM
# [8] = target: Muscarinic acetylcholine receptor M3 (Homo sapiens) (UniProt P20309); conditions: Compound concentration 10.0 uM
# [9] = target: Transient receptor potential cation channel subfamily A member 1 (Mus musculus, UniProt Q8BLA8); test: FLIPR Ca2+ assay (mouse TRPA1)
# Sequence of Transient receptor potential cation channel subfamily A member 1 (Mus musculus, UniProt Q8BLA8) (Q8BLA8 whole entry): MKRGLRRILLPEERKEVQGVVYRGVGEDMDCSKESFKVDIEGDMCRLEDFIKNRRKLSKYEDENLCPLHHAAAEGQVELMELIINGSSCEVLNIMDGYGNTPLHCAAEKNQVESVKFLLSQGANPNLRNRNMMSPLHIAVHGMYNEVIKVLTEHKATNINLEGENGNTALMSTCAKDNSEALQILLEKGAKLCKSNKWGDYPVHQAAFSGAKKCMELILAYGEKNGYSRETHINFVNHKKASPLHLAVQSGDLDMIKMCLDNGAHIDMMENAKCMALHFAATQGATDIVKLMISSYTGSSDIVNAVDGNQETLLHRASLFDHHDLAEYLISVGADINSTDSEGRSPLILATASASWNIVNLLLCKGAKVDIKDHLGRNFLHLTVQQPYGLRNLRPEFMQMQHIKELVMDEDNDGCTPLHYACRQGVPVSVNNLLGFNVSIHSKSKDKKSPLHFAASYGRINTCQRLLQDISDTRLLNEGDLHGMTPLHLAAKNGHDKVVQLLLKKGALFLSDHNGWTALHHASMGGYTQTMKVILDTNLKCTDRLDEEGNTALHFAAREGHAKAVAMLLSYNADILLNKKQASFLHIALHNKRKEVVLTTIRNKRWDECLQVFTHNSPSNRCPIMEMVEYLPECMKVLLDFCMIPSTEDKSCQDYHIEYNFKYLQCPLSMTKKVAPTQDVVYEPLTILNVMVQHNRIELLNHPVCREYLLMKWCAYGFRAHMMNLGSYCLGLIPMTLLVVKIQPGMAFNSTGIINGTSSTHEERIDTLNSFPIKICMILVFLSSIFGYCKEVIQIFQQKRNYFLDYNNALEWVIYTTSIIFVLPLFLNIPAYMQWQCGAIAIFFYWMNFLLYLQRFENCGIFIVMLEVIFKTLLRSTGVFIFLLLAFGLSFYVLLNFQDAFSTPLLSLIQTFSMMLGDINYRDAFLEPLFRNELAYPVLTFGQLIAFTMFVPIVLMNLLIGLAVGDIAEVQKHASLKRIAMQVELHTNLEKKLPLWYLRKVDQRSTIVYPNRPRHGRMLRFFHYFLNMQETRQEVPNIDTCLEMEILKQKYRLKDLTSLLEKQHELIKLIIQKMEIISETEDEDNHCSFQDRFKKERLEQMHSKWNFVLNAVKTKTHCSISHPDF
# [10] = target: Endothelin-1 receptor (Homo sapiens) (UniProt P25101); conditions: Compound concentration 10.0 uM
# [11] = target: D(2) dopamine receptor (Homo sapiens) (UniProt P14416); conditions: Compound concentration 10.0 uM
# [12] = target: Kappa-type opioid receptor (Homo sapiens) (UniProt P41145); conditions: Compound concentration 10.0 uM
# Sequence of Kappa-type opioid receptor (Homo sapiens) (P41145 whole entry): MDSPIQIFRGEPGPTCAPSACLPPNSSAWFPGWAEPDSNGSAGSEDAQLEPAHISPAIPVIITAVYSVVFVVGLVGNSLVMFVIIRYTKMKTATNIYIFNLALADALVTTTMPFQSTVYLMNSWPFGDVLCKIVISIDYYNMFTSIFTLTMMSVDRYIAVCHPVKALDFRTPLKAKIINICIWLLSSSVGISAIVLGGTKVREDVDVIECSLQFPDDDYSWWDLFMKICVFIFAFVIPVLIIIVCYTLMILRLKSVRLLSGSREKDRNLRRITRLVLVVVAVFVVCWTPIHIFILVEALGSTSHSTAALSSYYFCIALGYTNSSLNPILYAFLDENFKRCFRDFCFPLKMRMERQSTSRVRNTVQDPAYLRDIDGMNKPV
# [13] = target: Alpha-2A adrenergic receptor (Homo sapiens) (UniProt P08913); conditions: Compound concentration 10.0 uM
# Sequence of Alpha-2A adrenergic receptor (Homo sapiens) (P08913 whole entry): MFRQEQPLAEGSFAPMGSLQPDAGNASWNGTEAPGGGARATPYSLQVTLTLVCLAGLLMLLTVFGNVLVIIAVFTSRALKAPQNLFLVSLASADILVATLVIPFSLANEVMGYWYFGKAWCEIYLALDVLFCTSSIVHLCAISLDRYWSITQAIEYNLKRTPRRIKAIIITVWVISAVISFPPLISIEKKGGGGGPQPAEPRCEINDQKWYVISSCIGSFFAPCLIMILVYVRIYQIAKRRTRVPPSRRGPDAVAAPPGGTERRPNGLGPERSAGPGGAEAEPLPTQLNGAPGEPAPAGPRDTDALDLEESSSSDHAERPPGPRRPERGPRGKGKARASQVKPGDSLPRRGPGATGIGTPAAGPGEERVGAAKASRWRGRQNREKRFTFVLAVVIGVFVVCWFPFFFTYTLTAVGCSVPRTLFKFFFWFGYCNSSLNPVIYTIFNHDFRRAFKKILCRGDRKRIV
# [14] = target: T2, 5-hydroxytryptamine receptor 2C (Homo sapiens) (UniProt P28335); conditions: Compound concentration 10.0 uM
# T2 sequence (whole entry): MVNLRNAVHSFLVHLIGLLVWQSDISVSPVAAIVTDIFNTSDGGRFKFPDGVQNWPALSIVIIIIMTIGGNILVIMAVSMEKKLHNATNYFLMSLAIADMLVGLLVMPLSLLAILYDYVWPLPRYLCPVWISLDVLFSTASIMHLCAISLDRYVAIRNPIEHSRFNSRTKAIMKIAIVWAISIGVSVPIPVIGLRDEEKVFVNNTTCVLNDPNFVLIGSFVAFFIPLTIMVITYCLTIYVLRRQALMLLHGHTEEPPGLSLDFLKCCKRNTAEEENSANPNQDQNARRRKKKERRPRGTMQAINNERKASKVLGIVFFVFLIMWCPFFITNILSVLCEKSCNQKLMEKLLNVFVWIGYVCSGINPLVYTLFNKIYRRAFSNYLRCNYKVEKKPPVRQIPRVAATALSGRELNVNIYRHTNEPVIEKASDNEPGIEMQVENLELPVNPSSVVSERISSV
# [15] = target: T3, Muscarinic acetylcholine receptor M1 (Homo sapiens) (UniProt P11229); conditions: Compound concentration 10.0 uM
# T3 sequence (whole entry): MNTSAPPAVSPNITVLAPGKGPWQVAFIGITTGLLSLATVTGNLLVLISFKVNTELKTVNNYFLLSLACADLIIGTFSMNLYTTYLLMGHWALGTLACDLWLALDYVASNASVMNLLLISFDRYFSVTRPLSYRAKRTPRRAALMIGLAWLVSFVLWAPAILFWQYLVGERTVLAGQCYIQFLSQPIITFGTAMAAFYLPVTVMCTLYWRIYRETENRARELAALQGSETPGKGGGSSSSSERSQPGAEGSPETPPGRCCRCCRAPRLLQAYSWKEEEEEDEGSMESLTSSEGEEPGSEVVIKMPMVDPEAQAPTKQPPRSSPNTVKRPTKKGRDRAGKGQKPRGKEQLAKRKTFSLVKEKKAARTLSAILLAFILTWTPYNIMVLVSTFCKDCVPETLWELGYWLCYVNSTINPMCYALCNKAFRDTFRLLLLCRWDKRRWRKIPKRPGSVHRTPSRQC
# [16] = target: Beta-2 adrenergic receptor (Homo sapiens) (UniProt P07550); conditions: Compound concentration 10.0 uM
# [17] = target: Growth hormone secretagogue receptor type 1 (Homo sapiens) (UniProt Q92847); conditions: Compound concentration 10.0 uM
# Sequence of Growth hormone secretagogue receptor type 1 (Homo sapiens) (Q92847 whole entry): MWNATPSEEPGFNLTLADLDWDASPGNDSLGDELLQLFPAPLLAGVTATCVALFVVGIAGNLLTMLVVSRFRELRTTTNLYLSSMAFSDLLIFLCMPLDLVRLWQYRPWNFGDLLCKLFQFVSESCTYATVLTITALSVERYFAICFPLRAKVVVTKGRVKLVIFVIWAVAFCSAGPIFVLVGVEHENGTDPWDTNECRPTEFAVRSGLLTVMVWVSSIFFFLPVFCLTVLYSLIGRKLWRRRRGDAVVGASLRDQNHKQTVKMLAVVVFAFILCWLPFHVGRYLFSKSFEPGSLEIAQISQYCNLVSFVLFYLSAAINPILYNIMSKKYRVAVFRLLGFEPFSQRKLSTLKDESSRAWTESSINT
# [18] = target: T4, Sodium-dependent dopamine transporter (Homo sapiens, UniProt Q01959); test: GPCRScan assay: inhibition of DAT; set-up: radioligand conc. used [nm] 3.6 – 16.0, parental cells stable HEK
# T4 sequence (Q01959 whole entry): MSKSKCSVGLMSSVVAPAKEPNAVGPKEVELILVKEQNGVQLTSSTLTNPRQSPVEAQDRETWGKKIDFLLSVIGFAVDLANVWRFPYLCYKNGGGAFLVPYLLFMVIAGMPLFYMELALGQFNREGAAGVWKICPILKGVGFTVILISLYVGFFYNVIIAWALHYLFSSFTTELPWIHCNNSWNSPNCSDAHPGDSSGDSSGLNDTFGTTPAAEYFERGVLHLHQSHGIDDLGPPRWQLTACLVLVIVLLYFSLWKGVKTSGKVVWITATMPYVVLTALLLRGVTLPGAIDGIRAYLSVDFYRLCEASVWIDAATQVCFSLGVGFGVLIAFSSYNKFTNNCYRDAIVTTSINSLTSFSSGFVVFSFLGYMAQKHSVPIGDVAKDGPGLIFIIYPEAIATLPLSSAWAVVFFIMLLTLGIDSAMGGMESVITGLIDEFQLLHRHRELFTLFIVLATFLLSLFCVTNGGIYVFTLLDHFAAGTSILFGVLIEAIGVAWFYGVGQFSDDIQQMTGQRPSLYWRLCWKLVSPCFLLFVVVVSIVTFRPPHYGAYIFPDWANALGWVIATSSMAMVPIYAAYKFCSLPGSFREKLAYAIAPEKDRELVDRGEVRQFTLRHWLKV
# [19] = target: Glutamate NMDA receptor (Rattus norvegicus) (UniProt P35439+Q00959+Q00960+Q00961+Q62645+Q8VHN2+Q9R1M7); conditions: Compound concentration 10.0 uM
# [20] = target: T4, Sodium-dependent dopamine transporter; test: Inhibition of Transporter, Dopamine (DAT) at compound concentration of 10.0 uM in the Eurofins-Panlabs radioligand binding assay (Eurofins_assay_220320); set-up: ligand concentration 0.15 nM, non-specific ligand with concentration 10 uM Nomifensine, incubation time 3 h, incubation temperature 4 C
# [21] = FLIPR Ca2+ assay (dog TRPA1); set-up: species or system Canis lupus familiaris
# [22] = target: Purinergic P2Y (Rattus norvegicus) (UniProt O35811+Q9EPX4+P49651+Q63371+P41232+O35881+Q6GUG4); conditions: Compound concentration 10.0 uM
# [23] = target: Adenosine Transporter (Cavia porcellus) (UniProt H0V4R7+H0UUG1+H0V3Z5); test: Inhibition of Transporter, Adenosine at compound concentration of 10.0 uM in the Eurofins-Panlabs radioligand binding assay (Eurofins_assay_202000); format: protein assay; set-up: ligand concentration 0.5 nM, non-specific ligand with concentration 5 uM Nitrobenzylthioinosine, incubation time 30 min, incubation temperature 25 C; conditions: Compound concentration 10.0 uM
# [24] = target: 5-hydroxytryptamine receptor 6 (Homo sapiens) (UniProt P50406); conditions: Compound concentration 10.0 uM
# [25] = target: Alpha-2B adrenergic receptor (Homo sapiens) (UniProt P18089); conditions: Compound concentration 10.0 uM
# Sequence of Alpha-2B adrenergic receptor (Homo sapiens) (P18089 whole entry): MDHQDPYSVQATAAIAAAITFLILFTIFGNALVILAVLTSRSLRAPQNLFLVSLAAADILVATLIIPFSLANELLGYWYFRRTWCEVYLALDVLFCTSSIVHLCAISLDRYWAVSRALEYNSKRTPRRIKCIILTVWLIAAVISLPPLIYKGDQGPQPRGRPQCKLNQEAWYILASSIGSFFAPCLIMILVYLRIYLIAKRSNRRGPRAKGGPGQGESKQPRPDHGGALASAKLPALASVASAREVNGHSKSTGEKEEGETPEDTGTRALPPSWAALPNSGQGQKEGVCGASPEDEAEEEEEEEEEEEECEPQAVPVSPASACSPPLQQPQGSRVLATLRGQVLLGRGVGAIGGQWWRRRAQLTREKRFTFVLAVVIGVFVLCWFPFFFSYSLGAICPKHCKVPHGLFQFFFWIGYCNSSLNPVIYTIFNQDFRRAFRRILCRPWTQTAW
# Sequence of Transient receptor potential cation channel subfamily A member 1 (Homo sapiens, UniProt O75762) (O75762 whole entry): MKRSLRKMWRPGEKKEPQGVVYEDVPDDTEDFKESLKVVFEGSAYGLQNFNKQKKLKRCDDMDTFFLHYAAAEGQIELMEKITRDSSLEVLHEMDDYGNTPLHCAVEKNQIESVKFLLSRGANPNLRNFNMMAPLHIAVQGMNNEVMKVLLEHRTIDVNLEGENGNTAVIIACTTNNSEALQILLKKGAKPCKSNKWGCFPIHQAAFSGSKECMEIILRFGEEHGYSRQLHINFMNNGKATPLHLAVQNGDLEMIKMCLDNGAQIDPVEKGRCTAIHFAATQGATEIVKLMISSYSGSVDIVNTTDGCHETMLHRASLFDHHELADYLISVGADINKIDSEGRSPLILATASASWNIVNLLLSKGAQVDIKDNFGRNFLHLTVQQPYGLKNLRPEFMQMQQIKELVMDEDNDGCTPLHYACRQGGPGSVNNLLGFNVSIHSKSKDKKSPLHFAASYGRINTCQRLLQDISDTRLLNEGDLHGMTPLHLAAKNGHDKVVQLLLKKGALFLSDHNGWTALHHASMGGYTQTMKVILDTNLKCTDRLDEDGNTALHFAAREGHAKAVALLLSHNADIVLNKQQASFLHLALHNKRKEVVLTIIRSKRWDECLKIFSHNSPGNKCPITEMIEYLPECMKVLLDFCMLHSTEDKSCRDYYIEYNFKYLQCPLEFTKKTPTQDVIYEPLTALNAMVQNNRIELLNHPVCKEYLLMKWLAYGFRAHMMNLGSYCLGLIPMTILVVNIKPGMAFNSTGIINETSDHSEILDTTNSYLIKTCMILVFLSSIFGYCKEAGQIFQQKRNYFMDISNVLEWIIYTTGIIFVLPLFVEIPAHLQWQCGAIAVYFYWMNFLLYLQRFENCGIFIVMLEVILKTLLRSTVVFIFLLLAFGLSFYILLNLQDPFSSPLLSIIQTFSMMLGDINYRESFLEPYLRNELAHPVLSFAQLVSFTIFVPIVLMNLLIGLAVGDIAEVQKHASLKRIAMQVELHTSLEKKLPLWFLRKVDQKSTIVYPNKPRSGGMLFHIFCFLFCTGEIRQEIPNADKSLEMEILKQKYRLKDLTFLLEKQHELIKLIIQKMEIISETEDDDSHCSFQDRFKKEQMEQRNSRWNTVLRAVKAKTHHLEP
structure (smiles),measurement,setting,value
O[C@]1(C(F)(F)F)CCCC[C@H]1Nc1ccc(F)cc1 [BAY-390],IC50,[1],82 nM (active)
same,inhibition,[2],10%
same,pKi,[3],5.59
same,inhibition,[4],30.2%
same,inhibition,[5],-3%
same,inhibition,[6],8%
same,inhibition,[7],-4%
same,inhibition,[8],21%
same,IC50,[9],73 nM (active)
same,inhibition,[10],7%
same,inhibition,[11],12%
same,inhibition,[12],7%
same,inhibition,[13],7%
same,inhibition,[14],3%
same,inhibition,[15],-1%
same,inhibition,[16],11%
same,inhibition,[17],3%
same,pKi,[18]; read-out: Ki,5.86
same,Ki,[18]; read-out: pKi (converted),1350 nM
same,inhibition,[19],9%
same,pIC50,[20],5.92
same,pKi,[20],6.03
same,IC50,[21],81 nM (active)
same,inhibition,[22],-6%
same,inhibition,[23],-2%
COc1cc(N[C@@H]2CCCC[C@]2(O)C(F)(F)F)ccc1F [BAY-9897],inhibition,[24],-4.02%
same,inhibition,[25],-0.18%
